Data published in US8791132B2, “Compounds and methods for treatment of hypertension” (Medivation Technologies, Inc., priority 2011, dated 2014).

Tests used:
[1] = test system: healthy dogs; test: Blood pressure in healthy beagle dogs (telemetry); assay type: in vivo, dog
Description: (§1) Four adult beagle dogs of both sex and weighted around 10 kg were chosen for the acute studies after a preliminary qualitative electrocardiogram/ECG, clinical pathology and physical examination. Upon arrival at the laboratory, the dogs were weighed and acclimated for a period of one week. Lab Diet certified canine diet #5007, PMI Nutrition International Inc was made available ad libitum to all dogs except during fasting periods. The dogs were surgically implanted with a pressure transducer equipped telemetry transmitter under sodium pentobarbitone anesthesia. The transmitter assembly was secured internally, the fluid-filled catheter was placed into an appropriate artery.
(§2) In the acute studies, the test compounds 3b and 5b at different doses (dosing sequences provided in Table B7 for compound 3b and Table B8 for compound 5b) was administered by oral gavage, 30 minutes prior to intravenous dexmedetomidine (5 μg/kg) challenge. Dexmedetomidine administration was enabled by prior placement of a peripheral intravenous line. The same four dogs were received all four treatments in the order noted in the table below, with at least a 3-day washout period between treatments.
In another acute study with compound 41a, the test agent was administered a dose of 6 mg/kg by oral gavage to 4 healthy dogs; and the blood pressure monitored for a period of 4 hours.
(§3) For the chronic study mode (see Table B9), the test compound 3b at 3 doses was administered by oral gavage once on day 1 and then twice/day on days 2 to 14, and finally once on day 15. The dexmedetomidine was administered on day-4 to check its effectiveness in inducing blood pressure, and once following the morning dose of compound 3b or vehicle on days 2, 7 and 14. Blood pressure and heart rate data were collected 1 h prior & 4 h post-morning dose on days 1, 2, 7, 14 and 15 to allow the appropriate data comparisons. Blood aliquots were saved at 4 h post-morning dose for exposure determination.
In both acute and chronic studies, dogs were weighed before dosing. Cardiovascular evaluations at each dose of test compound were collected with animals gently restrained in a sling. Dogs were placed in the sling at least 1 hour prior to dose administration, and after at least 30 minutes of stable baseline data collection. The dogs were monitored continuously for 3-4 hours subsequent to test compound administration and summarized in 5-minute bins. The systolic blood pressure was collected.

[2] = test system: SH-SY5Y cells; test: Cell viability (MTS reduction) in 4-Br-A23187-treated SH-SY5Y cells; assay type: cell-based; settings: MTS reduction capacity; 4-Br-A23187 2 μM, 24 h; compounds at 10 nM
Description: After 24 h, cells were depleted from FBS and kept in culture for 24 h before the experiment. Cells were then treated with 4-Br-A23187 (2 μM), hydrogen peroxide (300 μM) or the mitochondrial toxin rotenone (25 μM) in the presence of vehicle or Compound of the Invention for 24 h. Cell death was determined by measurements of LDH release according to the Cytotoxicity Detection KitPlus (Roche, Mannheim, Germany). Cell viability was determined by measuring the capacity of cells to metabolize MTS tetrazolium (MTS) according to the Cytotoxicity Detection KitPlus (Roche, Mannheim, Germany) and MTS reduction is assessed by the CellTiter 96® AQueous One Solution Cell Proliferation assay (Promega Corporation, Madison, Wis., USA). Compounds were screened at 10 nM, using DMSO as vehicle. Assay results for the experiments with hydrogen peroxide are presented as the LDH release (cell death) of untreated cells (control), hydrogen peroxide-treated cells (vehicle), and co-incubation of hydrogen peroxide with Compounds of the Invention treated cells normalized to the vehicle (FIG. 17A). This assay assesses the ability of the test compounds to protect against cell death that is mediated by mitochondrial dysfunction. In the assay, the calcium ionophore 4-Br-A23187 is used to challenge the cells, causing calcium levels to rise in mitochondria, which leads to depolarization and cell death. Test compounds are assessed for their ability to prevent cell death in response to challenge with 4-Br-A23187.

[3] = test system: SH-SY5Y cells over-expressing α-syn; test: Cell viability (MTS reduction) in SH-SY5Y cells over-expressing α-synuclein; assay type: cell-based; settings: Homo sapiens, 336 h, α-syn over-expression (−dox), compounds at 0.1 nM, +dox control = 100, 14 days, read-out: Relative cell viability protection
Description: Cell Culture. SH-SY5Y cells stably transfected with a doxycyline-inducible wild-type α-synuclein (α-syn) gene along with control SH-SY5Y cells over-expressing the β-galactosidase (β-gal) gene (a gift from L. Stefanis, Division of Basic Neurosciences, Biomedical Research Foundation of the Academy of Athens, Athens, Greece) are cultured as described by Vekrellis et al. (Vekrellis K, Xilouri M, Emmanouilidou E, Stefanis L. (2009). Inducible over-expression of α-syn in human neuronal cells leads to caspase-dependent non-apoptotic death. J Neurochem 109, 1348-1362). In accordance with this method, cells are cultured and maintained in RPMI 1640, 10% fetal bovine serum supplemented with 250 μg/mL G418 and 50 μg/mL Hygromycin B. Expression of α-syn is switched off in stock cultures with doxycycline (2 μg/mL). For experimental procedures, cells are plated at (4−8×10^4 cells/cm^2) and differentiated in absence of doxycycline and in the presence of 20 μM all-trans retinoic acid (RA) (Sigma, St Louis, Mo., USA).
Viability Assay: Cells are cultured in 96-well plates. After 24 h, cells are treated with RA and Compounds of Invention at 0.1 and 10 nM in the absence of doxycyline. Culture medium with RA and drugs is fully replaced after 7 days. Cell viability is measured by the release of lactate dehydrogenase (LDH) from necrotic cells into the culture medium and by measuring the capacity of cells to metabolize MTS tetrazolium (MTS) after 14 days in culture. LDH leakage is assessed according to the Cytotoxicity Detection KitPlus (Roche, Mannheim, Germany) and MTS reduction is assessed by the CellTiter 96® AQueous One Solution Cell Proliferation assay (Promega Corporation, Madison, Wis., USA).
Assay results for the experiments with α-syn over-expression are presented as the MTS reduction capacity (cell viability) of control cells (+dox), cells over-expressing α-syn (−dox), and cells over-expressing α-syn incubated with Compounds of the Invention at 0.1 nM (FIG. 18A) or 10 nM (FIG. 18B).

[4] = test system: dexmedetomidine induced dogs; test: Dexmedetomidine (DEX) induced beagle dog model of hypertension; assay type: in vivo
Description: as §1, §2, §3
In both acute and chronic studies, dogs were weighed before dosing. Cardiovascular evaluations at each dose of test compound were collected with animals gently restrained in a sling. […] The dogs were monitored continuously for 3-4 hours subsequent to test compound administration and summarized in 5-minute bins. […]

[5] = dexmedetomidine (5 μg/kg i.v.) induced dogs, acute studies, oral gavage 30 min before challenge

| SMILES | heart rate ([1]; 6 mg/kg oral gavage) | systolic blood pressure ([1]; acute studies, oral gavage) | Relative cell viability protection [2] | viability at 0.0001 µM [3] | systolic blood pressure [4, 5] | systolic blood pressure ([1]; chronic study, oral, day 1 and 15) | systolic blood pressure ([4]; dexmedetomidine induced dogs, chronic study, oral b.i.d., day 2, 7 and 14) |
| --- | --- | --- | --- | --- | --- | --- | --- |
| CN1CCc2c(n(CC(O)c3ccncc3)c3ccc(Cl)cc23)C1 (single isomer, unassigned) [41a] | slight decrease or neutral effect | robust and long lasting reduction in systolic blood pressure | – | – | – | – | – |
| Cc1ccc2c(c1)c1c(n2CC(C)(O)c2cccnc2)CCN(C)C1 (single isomer, unassigned) [5b, 1-(1,2,3,4-tetrahydro-2,8-dimethylpyrido[4,3-b]indol-5-yl)-2-(pyridin-3-yl)propan-2-ol] | – | dose-dependently reduced systolic blood pressure | 0.3748 | 76.5% | dose-dependently reduced systolic blood pressure | – | – |
| Cc1ccc2c(c1)c1c(n2CC(O)c2ccncc2)CCNC1 (single isomer, unassigned) [39a, 2-(8-methyl-1,2,3,4-tetrahydro-pyrido[4,3-b]indol-5-yl)-1-pyridin-4-yl-ethanol] | – | – | – | 72.5% | – | – | – |
| CN1CCc2c(c3cc(Cl)ccc3n2CC(O)c2ccncc2)C1 (single isomer, unassigned) [4a] | – | – | – | 73.4% | – | – | – |
| Cc1ccc2c(c1)c1c(n2CC(O)c2ccncc2)CCN(C)C1 (single isomer, unassigned) [3b] | – | dose-dependently reduced systolic blood pressure | 0.3673 | 70.8% | dose-dependently reduced systolic blood pressure | dose dependently reduced systolic blood pressure | dose dependently reduced systolic blood pressure |
